Key:
E. Coli = test: Antibacterial Test 2: bacterial reduction rate, ASTM E 2149 test method; type: cell-based, Escherichia coli; conditions: 0.2 g sample, 10 mL PBS with E. Coli, 37° C., colony count; for 1 hour-bacterial reduction rate: 1 hour-contact; for 24 hour-bacterial reduction rate: 24 hour-contact
Protocol: (§1) Antibacterial tests were performed on the antibacterial polymers prepared in Examples and Comparative Examples. Specifically, based on the ASTM E 2149 antibacterial test method, the bacterial reduction rate (%) was measured by the following method. In addition, the bacterial reduction rates (%) of Icaridin and Menthol acrylate as single molecules was also measured by the same method and shown as Comparative Examples 2 and 3.
The sample (0.2 g) was placed in a 50 mL conical tube, to which 1× PBS (10 mL) inoculated with E. Coli (1.5×10^5 CFU/mL) was added, and cultured for 1 hour and 24 hours in a shaking incubator at 37° C., so as to allow the bacteria and the material to come into sufficient contact with each other. In order to check the colony of E. coli in the cultured sample, the sequentially diluted solution was spread on a TSA Agar plate, and then cultured for 16 hours so as to form colonies in an incubator at 30° C. The degree of bacterial culture was grasped from the number of colonies formed, and the antibacterial performance was compared.
In the above equation, Cs is the number of microorganisms (CFU/ml) in the experimental group, which can be confirmed as the number of colonies formed on the TSA Agar plate, and C0 is the number of microorganisms in the control group, which means the number of E. Coli in PBS to which the sample was not added.

[1] = system: Proteus Mirabilis (ATCC 29906); test: Antibacterial Test 1: bacterial growth inhibition rate by absorbance at 600 nm; type: cell-based; conditions: 0.1 g sample in 25 ml nutrient broth, 3000 CFU/ml, 37° C., 16 hours
Protocol: as §1, with “in” for “based on”, “the” for “the ASTM E 2149”, “test,” for “test method,”, “growth inhibition” for “reduction”, “growth inhibition rate” for “reduction rates”
0.1 g of the antibacterial polymer prepared above was added to 25 ml of nutrient broth culture medium inoculated with the test bacterium Proteus Mirabilis (ATCC 29906) at 3000 CFU/ml, and then incubated in a shaking incubator (VS-37SIF, produced by Visiontech) at 37° C. for 16 hours. The absorbance at 600 nm wavelength of the cultured solution was measured using a UV-Vis Spectrophotometer (Optizen POP, produced by K Lab). In addition, in a pure culture medium containing no antibacterial polymer, a solution prepared by culturing Proteus Mirabilis (ATCC 29906) at 37° C. for 16 hours was prepared as a control group, and the absorbance at a 600 nm wavelength was measured by the same manner as above. Using the measurement result, the bacterial growth inhibition rate (%) of Proteus Mirabilis (ATCC 29906) was calculated according to Equation 1 below, and the results are shown in Table 1 below. […]

[2] = Comparison of thermal decomposition behavior by TGA of PMMA blends; type: physicochemical; conditions: TGA step 4, 50° C. to 600° C., 10° C./min, nitrogen; 40 parts by weight in 100 parts PMMA
Protocol: Poly(Methyl methacrylate) (TCI Chemical, CAS RN: 9011-14-7) was put into a Mixed Torque Rheometer (HAPRO), and then the temperature was raised to 160° C. and the mixture was mixed for 5 minutes. PIA-2 and icaridin were added in an amount of 40 parts by weight based on 100 parts by weight of poly(methyl methacrylate), respectively, mixed at a temperature of 160° C. for 30 minutes, and then cooled to room temperature to obtain a sample.
In order to confirm the thermal decomposition behavior of the prepared sample, experiments were performed as shown in Table 2 below using TGA (Thermogravimetric Analyzer, TA Instrument, DISCOVERY TGA 550 W/MFC & AUTO).

SMILES | 1 hour-bacterial reduction rate (E. Coli) [%] | 24 hour-bacterial reduction rate (E. Coli) [%] | Bacterial growth inhibition rate [1] [%] | Thermal decomposition behavior / heat resistance [2]
C=CC(=O)OC1CC(C)CCC1C(C)C (stereo not shown) [compound 3, Menthol acrylate] | 0 | 0 | 0.2 | –
CCC(C)OC(=O)N1CCCCC1CCO (stereo not shown) [compound 2, Icaridin] | 3.17 | 13.89 | 11.24 | proceeds decomposition from a lower temperature than that of PIA-2
